A value given as a limit tells only on which side of the number the result lay.

In this assay the target is T1, CYP26A (P450RAI-1) (Homo sapiens, UniProt O43174).
T1 construct: expressed in transfected cells; host or cells: HeLa
T1 sequence (O43174 1-497): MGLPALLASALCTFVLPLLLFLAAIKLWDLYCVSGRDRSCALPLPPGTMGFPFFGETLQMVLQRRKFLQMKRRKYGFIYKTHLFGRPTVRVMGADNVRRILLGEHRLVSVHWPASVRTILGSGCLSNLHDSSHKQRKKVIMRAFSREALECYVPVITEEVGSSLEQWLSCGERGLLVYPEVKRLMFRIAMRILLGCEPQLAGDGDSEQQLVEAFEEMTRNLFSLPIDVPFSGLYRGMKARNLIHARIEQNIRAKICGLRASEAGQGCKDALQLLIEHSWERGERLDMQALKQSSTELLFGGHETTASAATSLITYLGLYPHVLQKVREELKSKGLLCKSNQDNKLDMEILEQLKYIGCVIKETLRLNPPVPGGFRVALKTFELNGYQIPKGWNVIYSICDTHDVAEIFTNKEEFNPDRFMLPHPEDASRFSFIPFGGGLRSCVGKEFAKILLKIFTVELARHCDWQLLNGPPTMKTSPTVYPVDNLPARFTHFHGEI
The assay can be described thus: Cell-based inhibition of RA metabolism in CYP26A stably transfected HeLa cells. As to conditions: for IC50: Table 3, stably transfected HeLa cells, [3H]-RA, 3 hours at 37° C., read-out: CYP26A Intact cells IC50. The method, boiled down:
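Stably transfected HeLa cells (5×10^5/well) in MEM with 10% FBS and 0.05 μCi [3H]-RA, compounds at 10, 1 or 0.1 μM final, 3 h at 37° C. Retinoids extracted by modified Bligh-Dyer (methylene chloride); aqueous radioactivity counted; ID50 for 50% inhibition of RA metabolism derived from log-transformed data.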

One may read the IC50 as the point on the concentration scale where inhibition reaches its midpoint. Regarding `CN(C1CC1)C1CCC(C)(C)c2cc(C#Cc3ccc(C(C)(C)C(=O)O)cc3)ccc21` (stereo not drawn) [AGN 198790], the IC50 turned out to be 0.6 µM. The “selectivity for CYP26A relative to CYP26B” value (ratio of ID50 values) was “at least 10 fold”.

In the case of `CN(Cc1cccc(C#Cc2ccc(/C=C/C(=O)O)cc2)c1)C1CC1` [AGN 199713], the concentration for half-maximal inhibition (IC50) is more than 10 µM.

The values above are taken from US7468391B2, “Methods for treating retinoid responsive disorders using selective inhibitors of CYP26A and CYP26B” (Allergan, Inc., priority 2003, dated 2008).
